For three molecules, remaining binding results are on record in patent US11208412B2 (DAEGU-GYEONGBUK MEDICAL INNOVATION FOUNDATION, priority 2017, dated 2021).

The structures appear in SMILES notation.

Holding throughout (assay): Kinase selectivity, DiscoverX scanMAX Kinase assay panel (% control)
Type in all cases: binding

The target of assay [1] is T1, kinases of the scanMAX Kinase assay panel (Homo sapiens, UniProt Q8N568).
T1 construct: purchased DiscoverX Co. (contract measurement) scanMAX Kinase assay panel
T1 sequence (Q8N568 whole entry): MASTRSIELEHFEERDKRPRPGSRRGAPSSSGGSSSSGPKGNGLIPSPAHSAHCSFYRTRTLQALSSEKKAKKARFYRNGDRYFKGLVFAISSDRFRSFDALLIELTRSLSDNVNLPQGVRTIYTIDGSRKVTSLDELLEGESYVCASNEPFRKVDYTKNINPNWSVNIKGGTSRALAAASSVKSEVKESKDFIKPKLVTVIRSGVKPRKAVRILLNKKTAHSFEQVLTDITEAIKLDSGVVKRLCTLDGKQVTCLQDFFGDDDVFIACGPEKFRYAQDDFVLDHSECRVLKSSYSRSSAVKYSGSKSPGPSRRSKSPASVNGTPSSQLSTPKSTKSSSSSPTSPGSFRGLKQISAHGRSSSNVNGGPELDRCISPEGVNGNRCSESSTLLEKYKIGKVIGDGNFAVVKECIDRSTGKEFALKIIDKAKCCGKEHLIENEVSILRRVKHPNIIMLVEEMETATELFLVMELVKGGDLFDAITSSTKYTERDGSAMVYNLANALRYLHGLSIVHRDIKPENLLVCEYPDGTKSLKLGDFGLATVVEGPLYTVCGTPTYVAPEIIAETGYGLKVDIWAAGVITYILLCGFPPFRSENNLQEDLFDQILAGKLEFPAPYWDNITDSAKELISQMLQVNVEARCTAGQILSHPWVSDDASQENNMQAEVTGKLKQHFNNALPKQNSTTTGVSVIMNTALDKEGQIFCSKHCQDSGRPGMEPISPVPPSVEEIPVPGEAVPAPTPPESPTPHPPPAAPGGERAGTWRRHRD
The note with it: DCAMKL2; 1 uM. The method in brief:
(§1)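 Compounds tested at 1 uM against the scanMAX kinase panel. Signal expressed as % control = (compound − positive control)/(DMSO negative control − positive control) × 100, where positive control = 0% and DMSO = 100%; below 35% counted as activity on that kinase.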

Assay [2] addresses T2, kinases of the scanMAX Kinase assay panel (Homo sapiens, UniProt O15111).
T2 construct: purchased DiscoverX Co. (contract measurement) scanMAX Kinase assay panel
T2 sequence (O15111 1-745): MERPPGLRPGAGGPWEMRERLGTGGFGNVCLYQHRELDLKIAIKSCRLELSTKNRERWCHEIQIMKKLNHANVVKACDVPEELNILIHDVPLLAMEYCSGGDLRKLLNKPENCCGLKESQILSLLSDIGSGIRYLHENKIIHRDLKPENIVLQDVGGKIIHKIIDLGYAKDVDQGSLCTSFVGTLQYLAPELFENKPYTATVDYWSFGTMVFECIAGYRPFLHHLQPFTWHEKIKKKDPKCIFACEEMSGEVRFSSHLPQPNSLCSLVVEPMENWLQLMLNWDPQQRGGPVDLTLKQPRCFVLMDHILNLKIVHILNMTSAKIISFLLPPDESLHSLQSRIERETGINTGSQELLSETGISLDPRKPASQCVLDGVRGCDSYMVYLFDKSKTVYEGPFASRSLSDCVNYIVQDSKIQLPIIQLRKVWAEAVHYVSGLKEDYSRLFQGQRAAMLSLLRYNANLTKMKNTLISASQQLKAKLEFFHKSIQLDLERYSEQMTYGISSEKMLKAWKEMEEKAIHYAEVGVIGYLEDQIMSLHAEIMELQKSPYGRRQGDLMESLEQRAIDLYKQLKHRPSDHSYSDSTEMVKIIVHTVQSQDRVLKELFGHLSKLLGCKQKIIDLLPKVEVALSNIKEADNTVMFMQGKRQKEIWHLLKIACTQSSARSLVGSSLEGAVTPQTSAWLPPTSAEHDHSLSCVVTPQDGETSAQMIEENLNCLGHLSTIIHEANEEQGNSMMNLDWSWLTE
The following applies: IKK-alpha; 1 uM. The gist of the method: as §1

The target of assay [3] is T3, kinases of the scanMAX Kinase assay panel (Homo sapiens, UniProt Q8NG66).
T3 construct: purchased DiscoverX Co. (contract measurement) scanMAX Kinase assay panel
T3 sequence (Q8NG66 1-645): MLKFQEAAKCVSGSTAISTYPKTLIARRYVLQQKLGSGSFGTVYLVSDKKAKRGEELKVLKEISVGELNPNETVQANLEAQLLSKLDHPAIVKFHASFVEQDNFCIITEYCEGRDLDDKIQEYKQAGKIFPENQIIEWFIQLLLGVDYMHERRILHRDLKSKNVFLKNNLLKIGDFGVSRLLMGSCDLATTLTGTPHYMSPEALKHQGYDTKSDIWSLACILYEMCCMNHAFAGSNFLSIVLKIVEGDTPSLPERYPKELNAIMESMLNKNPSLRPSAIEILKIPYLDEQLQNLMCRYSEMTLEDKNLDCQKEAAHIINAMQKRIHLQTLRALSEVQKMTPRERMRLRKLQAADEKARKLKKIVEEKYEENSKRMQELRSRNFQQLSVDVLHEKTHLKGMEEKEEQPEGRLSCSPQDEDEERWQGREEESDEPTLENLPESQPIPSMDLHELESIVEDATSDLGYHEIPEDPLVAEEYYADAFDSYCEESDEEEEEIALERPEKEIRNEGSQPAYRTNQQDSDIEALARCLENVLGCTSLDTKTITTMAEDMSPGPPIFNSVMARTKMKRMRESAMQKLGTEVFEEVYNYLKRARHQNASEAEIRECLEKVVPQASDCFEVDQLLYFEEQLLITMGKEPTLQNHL
The note with it: NEK11; 1 uM. The method in brief:
as §1

For assay [4], the target named is T4, kinases of the scanMAX Kinase assay panel (Homo sapiens, UniProt Q14004).
T4 construct: purchased DiscoverX Co. (contract measurement) scanMAX Kinase assay panel
T4 sequence (Q14004 whole entry): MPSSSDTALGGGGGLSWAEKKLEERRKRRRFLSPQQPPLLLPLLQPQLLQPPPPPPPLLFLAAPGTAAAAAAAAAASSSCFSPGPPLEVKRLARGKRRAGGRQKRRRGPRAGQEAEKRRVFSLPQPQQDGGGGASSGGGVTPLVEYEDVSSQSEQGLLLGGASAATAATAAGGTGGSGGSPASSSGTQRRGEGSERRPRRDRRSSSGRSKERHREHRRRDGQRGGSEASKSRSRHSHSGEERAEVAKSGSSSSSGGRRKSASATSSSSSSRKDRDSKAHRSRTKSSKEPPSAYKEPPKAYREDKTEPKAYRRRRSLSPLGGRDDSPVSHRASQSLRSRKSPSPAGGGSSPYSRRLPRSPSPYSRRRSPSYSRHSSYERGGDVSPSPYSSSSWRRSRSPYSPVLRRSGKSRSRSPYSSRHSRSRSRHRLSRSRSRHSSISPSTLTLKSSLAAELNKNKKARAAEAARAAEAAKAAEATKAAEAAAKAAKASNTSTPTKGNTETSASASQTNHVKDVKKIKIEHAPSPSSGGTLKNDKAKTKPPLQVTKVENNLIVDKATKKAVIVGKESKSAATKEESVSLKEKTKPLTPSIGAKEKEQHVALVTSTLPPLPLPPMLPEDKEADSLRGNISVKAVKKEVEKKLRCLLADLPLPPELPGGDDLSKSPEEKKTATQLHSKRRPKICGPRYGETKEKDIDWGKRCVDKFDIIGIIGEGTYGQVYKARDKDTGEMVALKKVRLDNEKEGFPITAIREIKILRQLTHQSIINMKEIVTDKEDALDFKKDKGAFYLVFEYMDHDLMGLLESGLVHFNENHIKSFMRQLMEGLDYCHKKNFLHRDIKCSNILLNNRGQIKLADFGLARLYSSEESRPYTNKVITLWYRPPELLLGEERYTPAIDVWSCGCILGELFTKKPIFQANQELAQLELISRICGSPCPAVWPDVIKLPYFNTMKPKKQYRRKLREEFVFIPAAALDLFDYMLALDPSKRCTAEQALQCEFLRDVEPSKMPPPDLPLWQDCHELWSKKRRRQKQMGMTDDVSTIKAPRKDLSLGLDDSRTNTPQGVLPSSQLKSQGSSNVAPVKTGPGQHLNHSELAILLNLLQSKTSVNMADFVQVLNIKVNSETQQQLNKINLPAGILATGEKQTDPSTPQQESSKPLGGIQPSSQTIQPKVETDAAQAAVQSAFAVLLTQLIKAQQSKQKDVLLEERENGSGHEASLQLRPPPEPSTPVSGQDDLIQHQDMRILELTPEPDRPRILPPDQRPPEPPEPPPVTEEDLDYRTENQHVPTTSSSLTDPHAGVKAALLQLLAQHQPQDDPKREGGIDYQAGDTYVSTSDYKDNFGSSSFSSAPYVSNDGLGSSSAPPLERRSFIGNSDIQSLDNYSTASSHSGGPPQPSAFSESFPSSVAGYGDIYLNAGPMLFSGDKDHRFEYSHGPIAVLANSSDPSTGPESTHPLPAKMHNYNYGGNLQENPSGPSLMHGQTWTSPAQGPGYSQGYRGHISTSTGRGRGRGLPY
The following applies: CDC2L5; 1 uM. The gist of the method:
as §1

Assay [5] addresses T5, kinases of the scanMAX Kinase assay panel (Homo sapiens, UniProt P33981).
T5 construct: purchased DiscoverX Co. (contract measurement) scanMAX Kinase assay panel
T5 sequence (P33981 1-857): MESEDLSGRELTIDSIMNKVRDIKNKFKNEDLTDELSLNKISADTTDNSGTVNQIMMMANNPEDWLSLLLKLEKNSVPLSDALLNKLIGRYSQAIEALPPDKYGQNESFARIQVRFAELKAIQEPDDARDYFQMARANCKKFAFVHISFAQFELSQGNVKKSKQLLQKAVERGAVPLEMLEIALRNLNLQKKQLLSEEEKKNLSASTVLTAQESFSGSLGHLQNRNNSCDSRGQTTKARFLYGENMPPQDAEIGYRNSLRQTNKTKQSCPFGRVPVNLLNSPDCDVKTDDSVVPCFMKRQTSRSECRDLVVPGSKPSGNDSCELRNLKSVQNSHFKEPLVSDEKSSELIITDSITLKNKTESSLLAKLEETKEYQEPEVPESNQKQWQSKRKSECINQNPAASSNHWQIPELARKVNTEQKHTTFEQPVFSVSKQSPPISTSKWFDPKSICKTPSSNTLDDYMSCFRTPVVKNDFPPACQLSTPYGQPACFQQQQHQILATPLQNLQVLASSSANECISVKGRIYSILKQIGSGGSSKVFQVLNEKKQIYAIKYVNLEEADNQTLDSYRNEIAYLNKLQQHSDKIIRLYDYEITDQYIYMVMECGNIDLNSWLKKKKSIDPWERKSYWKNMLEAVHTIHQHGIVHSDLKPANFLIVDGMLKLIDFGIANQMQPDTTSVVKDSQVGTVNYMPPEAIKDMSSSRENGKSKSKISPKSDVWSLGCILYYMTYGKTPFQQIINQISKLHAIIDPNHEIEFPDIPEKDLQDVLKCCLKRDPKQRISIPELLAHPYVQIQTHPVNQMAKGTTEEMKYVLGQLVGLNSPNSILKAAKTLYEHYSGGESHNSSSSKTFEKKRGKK
The note with it: kinase TTK; 1 uM in DMSO. The gist of the method:
as §1

The target in assay [6] is T6, kinases of the scanMAX Kinase assay panel (Homo sapiens, UniProt Q9UQM7).
T6 construct: purchased DiscoverX Co. (contract measurement) scanMAX Kinase assay panel
T6 sequence (Q9UQM7 whole entry): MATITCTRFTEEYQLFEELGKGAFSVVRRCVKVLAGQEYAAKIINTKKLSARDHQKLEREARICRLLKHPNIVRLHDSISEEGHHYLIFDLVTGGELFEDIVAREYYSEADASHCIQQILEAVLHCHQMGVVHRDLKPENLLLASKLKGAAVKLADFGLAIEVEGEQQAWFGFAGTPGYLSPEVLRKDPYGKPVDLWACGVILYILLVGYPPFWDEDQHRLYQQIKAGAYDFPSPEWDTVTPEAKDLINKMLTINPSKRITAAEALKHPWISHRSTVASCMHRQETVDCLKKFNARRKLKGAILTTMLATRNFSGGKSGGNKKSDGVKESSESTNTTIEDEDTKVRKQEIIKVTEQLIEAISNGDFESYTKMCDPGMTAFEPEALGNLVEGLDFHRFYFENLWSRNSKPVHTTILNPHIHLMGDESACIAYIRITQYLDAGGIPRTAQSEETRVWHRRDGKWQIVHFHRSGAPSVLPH
The following applies: CAMK2A; 1 uM. The gist of the method:
as §1

For the molecule `CNc1nc(Nc2ccc(C(=O)N3CCOCC3)cc2OC)nc2[nH]cc(C#N)c12` [Example 1, 2-((2-methoxy-4-(morpholine-4-carbonyl)phenyl)amino)-4-(methylamino)-7H-pyrrolo[2,3-d]pyrimidine-5-carbonitrile], the remaining binding at 1 µM amounted to 91% in assay [1]; 57% in assay [2]; 70% in assay [3]; 82% in assay [4]; 12% in assay [5]; 60% in assay [6].
For the molecule `CC1(Nc2nc(Nc3cnn([C@H]4CCN(C5COC5)C[C@@H]4F)c3Cl)nc3[nH]cc(C#N)c23)CC1` [Example 52, 2-((5-chloro-1-((3S,4S)-3-fluoro-1-(oxetane-3-yl)piperidine-4-yl)-1H-pyrazole-4-yl)amino)((1-methylcyclopropyl)amino)-7H-pyrrolo[2,3-d]pyrimidine-5-carbonitrile], the remaining binding at 1 µM in assay [1] was 76%; in assay [2], 3.4%; in assay [3] it was 100%; in assay [4] it was 97%; in assay [5], 0.25%; in assay [6] it was 28%.
On to `CCNc1nc(Nc2ccc(C(=O)N3CCC(N4CCOCC4)CC3)cc2OC)nc2[nH]cc(C(F)(F)F)c12` [Example 104, (4-((4-(ethylamino)-5-(trifluoromethyl)-7H-pyrrolo[2,3-d]pyrimidine-2-yl)amino)-3-methoxyphenyl)(4-morpholinopiperidine-1-yl)methanone], for which the remaining binding at 1 µM in assay [1] came to 93%; in assay [2], 93%; in assay [3] it was 100%; in assay [4], 100%; in assay [5], 1.4%; in assay [6], 39%.
